This passage reports solubility, IC50 and EC50 results from ChEMBL document CHEMBL4420076, “Amylin and calcitonin receptor agonist” (2017).

Data set [1] is described as follows: Solubility in 100 mM bistrispropane buffer at pH 7.0 incubated for 18 hrs by UPLC analysis. It counts as physicochemical.
Data set [2] in a line: Solubility in 100 mM bistrispropane buffer at pH 7.5 incubated for 18 hrs by UPLC analysis. It counts as physicochemical.
Data set [3] in a line: Solubility in 100 mM glycylglycine buffer at pH 5.0 incubated for 18 hrs by UPLC analysis. It counts as physicochemical.
For data set [4], the target named is T1, Amylin receptor AMY3; CALCR/RAMP3 (Homo sapiens, UniProt O60896+P30988).
T1 sequence (P30988 whole entry): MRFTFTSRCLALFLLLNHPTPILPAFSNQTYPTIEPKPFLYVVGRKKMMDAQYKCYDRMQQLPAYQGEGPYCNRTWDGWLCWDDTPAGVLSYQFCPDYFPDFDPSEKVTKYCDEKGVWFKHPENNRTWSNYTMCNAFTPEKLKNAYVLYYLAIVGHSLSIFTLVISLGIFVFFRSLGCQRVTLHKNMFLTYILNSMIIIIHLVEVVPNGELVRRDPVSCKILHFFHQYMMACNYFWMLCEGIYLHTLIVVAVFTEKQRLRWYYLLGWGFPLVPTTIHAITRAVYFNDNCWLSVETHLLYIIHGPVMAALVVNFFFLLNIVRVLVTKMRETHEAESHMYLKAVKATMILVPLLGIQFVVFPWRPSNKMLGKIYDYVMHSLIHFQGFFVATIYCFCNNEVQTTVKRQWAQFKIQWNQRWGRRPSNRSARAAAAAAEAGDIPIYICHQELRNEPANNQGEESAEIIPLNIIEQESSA
T1 sequence (O60896 whole entry): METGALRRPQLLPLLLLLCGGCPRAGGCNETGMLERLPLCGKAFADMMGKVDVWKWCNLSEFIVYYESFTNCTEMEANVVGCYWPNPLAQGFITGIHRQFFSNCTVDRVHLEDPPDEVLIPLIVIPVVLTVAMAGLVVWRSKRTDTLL
As to the kind of experiment: Displacement of [125I]-labeled rat amylin from human amylin receptor expressed in BHK tkts13 whole cells co-expressing RAMP3 incubated for 60 mins by scintillation proximity assay. It counts as cell-based.

The nature of data set [5]: Solubility in 100 mM bistrispropane buffer at pH 8.0 incubated for 18 hrs by UPLC analysis. It counts as physicochemical.
The nature of data set [6]: Solubility in 100 mM glycylglycine buffer at pH 4.0 incubated for 18 hrs by UPLC analysis. It counts as physicochemical.
Data set [7] in a line: Solubility in 100 mM glycylglycine buffer at pH 3.0 incubated for 18 hrs by UPLC analysis. It counts as physicochemical.
The nature of data set [8]: Solubility in 100 mM bistrispropane buffer at pH 6.5 incubated for 18 hrs by UPLC analysis. In kind it is physicochemical.
Data set [9] in a line: Solubility in 100 mM bistrispropane buffer at pH 6.0 incubated for 18 hrs by UPLC analysis. In kind it is physicochemical.
The target in data set [10] is T2, Calcitonin receptor (Homo sapiens, UniProt P30988).
T2 sequence (P30988 whole entry): T1 sequence (P30988 whole entry)
As to the kind of experiment: Agonist activity at human calcitonin receptor expressed in BHK570 cells assessed as increase in intracellular cAMP concentration incubated for 3 hrs in absence of albumin by CRE luciferase reporter gene assay. In kind it is functional, cell-based.

For data set [11], the target named is T1, Amylin receptor AMY3; CALCR/RAMP3. As to the kind of experiment: Agonist activity at human amylin receptor expressed in BHK570 cells co-expressing RAMP3 assessed as increase in intracellular cAMP concentration incubated for 3 hrs in absence of albumin by CRE luciferase reporter gene assay. In kind it is functional, cell-based.
The target in data set [12] is T2, Calcitonin receptor. As to the kind of experiment: Agonist activity at human calcitonin receptor expressed in BHK570 cells assessed as increase in intracellular cAMP concentration incubated for 3 hrs in presence of 10% FBS by CRE luciferase reporter gene assay. It counts as functional, cell-based.

Numbered stars: 1 amine (or outer) side, 2 acyl side, 3 side chain; on linkers, the order of the positions; unused ones are H or OH. Peptide text beside a SMILES is read from it. * marks the point of attachment. C20 diacid = O=C(O)CCCCCCCCCCCCCCCCCCC(=O)*; γGlu = O=C(O)[C@H](CCC(=O)[*:2])N[*:1]

In the case of `CC(C)C[C@H](NC(=O)[C@H](C)NC(=O)[C@H](C)NC(=O)[C@@H](NC(=O)[C@H](CO)NC(=O)[C@H](CC(C)C)NC(=O)[C@H](CCC(=O)O)NC(=O)[C@H](CO)NC(=O)[C@H](C)NC(=O)CC[C@H](NC(=O)CCCCCCCCCCCCCCCCCCC(=O)O)C(=O)O)[C@@H](C)O)C(=O)NCC(=O)N[C@@H](Cc1cnc[nH]1)C(=O)N[C@@H](CC(C)C)C(=O)N[C@@H](CO)C(=O)N[C@@H](C)C(=O)N[C@@H](CCC(=O)O)C(=O)N[C@@H](CC(C)C)C(=O)N[C@@H](Cc1cnc[nH]1)C(=O)N[C@@H](CCC(=O)O)C(=O)N[C@@H](CC(C)C)C(=O)N[C@@H](C)C(=O)N[C@H](C(=O)N[C@@H](CC(C)C)C(=O)N1CCC[C@H]1C(=O)N[C@@H](Cc1cnc[nH]1)C(=O)N[C@H](C(=O)N[C@@H](CCC(=O)O)C(=O)N[C@H](C(=O)NCC(=O)N[C@H](C(=O)NCC(=O)N[C@H](C(=O)N1CCC[C@H]1C(N)=O)[C@@H](C)O)[C@@H](C)O)[C@@H](C)O)[C@@H](C)O)[C@@H](C)O` ({C20 diacid-γGlu}-ASELSTAALGHLSAELHELATLPHTETGTGTP-NH2), the solubility at 18 h in data set [1], in [2], in data set [3], in data set [5], in [6] and in [7] was no less than 200 µM each time. Besides, the solubility at 18 h in data set [8] and in data set [9] was no less than 200 µM each time. Further, the IC50 in data set [4] was 1.51 nM. The EC50 at Calcitonin receptor [10] is 0.024 nM; in data set [11] it was 0.064 nM.

As to `CC(C)C[C@H](NC(=O)[C@H](C)NC(=O)[C@H](C)NC(=O)[C@@H](NC(=O)[C@H](CO)NC(=O)[C@H](CC(C)C)NC(=O)[C@H](CCC(=O)O)NC(=O)[C@H](CO)NC(=O)[C@H](C)NC(=O)CC[C@H](NC(=O)CCCCCCCCCCCCCCCCCCC(=O)O)C(=O)O)[C@@H](C)O)C(=O)NCC(=O)N[C@@H](CCCNC(=N)N)C(=O)N[C@@H](CC(C)C)C(=O)N[C@@H](CO)C(=O)N[C@@H](C)C(=O)N[C@@H](CCC(=O)O)C(=O)N[C@@H](CC(C)C)C(=O)N[C@@H](Cc1cnc[nH]1)C(=O)N[C@@H](CCC(=O)O)C(=O)N[C@@H](CC(C)C)C(=O)N[C@@H](C)C(=O)N[C@H](C(=O)N[C@@H](Cc1ccc(O)cc1)C(=O)N1CCC[C@H]1C(=O)N[C@@H](CCCNC(=N)N)C(=O)N[C@H](C(=O)N[C@@H](CCC(=O)O)C(=O)N[C@H](C(=O)NCC(=O)N[C@@H](CO)C(=O)NCC(=O)N[C@@H](CO)C(=O)N1CCC[C@H]1C(=O)NCC(=O)O)[C@@H](C)O)[C@@H](C)O)[C@@H](C)O` ({C20 diacid-γGlu}-ASELSTAALGRLSAELHELATYPRTETGSGSPG-OH), in data set [4], the IC50 is 7.26 nM. The results for the half-maximal effective concentration (EC50) (at Calcitonin receptor [12]; at Calcitonin receptor [10]; in data set [11]) were 0.05 nM, 0.064 nM and 0.187 nM, respectively.

For the molecule `CC(C)C[C@H](NC(=O)[C@H](C)NC(=O)[C@H](C)NC(=O)[C@@H](NC(=O)[C@H](CO)NC(=O)[C@H](CC(C)C)NC(=O)[C@H](CCC(=O)O)NC(=O)[C@H](CO)NC(=O)[C@H](C)NC(=O)CC[C@H](NC(=O)CCCCCCCCCCCCCCCCCCC(=O)O)C(=O)O)[C@@H](C)O)C(=O)NCC(=O)N[C@@H](CCCNC(=N)N)C(=O)N[C@@H](CC(C)C)C(=O)N[C@@H](CO)C(=O)N[C@@H](C)C(=O)N[C@@H](CCC(=O)O)C(=O)N[C@@H](CC(C)C)C(=O)N[C@@H](Cc1cnc[nH]1)C(=O)N[C@@H](CCC(=O)O)C(=O)N[C@@H](CC(C)C)C(=O)N[C@@H](C)C(=O)N[C@H](C(=O)N[C@@H](Cc1ccc(O)cc1)C(=O)N1CCC[C@H]1C(=O)N[C@@H](CCCNC(=N)N)C(=O)N[C@H](C(=O)N[C@@H](CCC(=O)O)C(=O)N[C@H](C(=O)NCC(=O)N[C@@H](CO)C(=O)NCC(=O)N[C@@H](CO)C(=O)N1CCC[C@H]1C(=O)N[C@@H](CCCCN)C(=O)O)[C@@H](C)O)[C@@H](C)O)[C@@H](C)O` ({C20 diacid-γGlu}-ASELSTAALGRLSAELHELATYPRTETGSGSPK-OH), the IC50 in [4] is 21 nM. Further, the figures for the 50% effective concentration (EC50) (at Calcitonin receptor [12]; in data set [11]) were 0.053 nM and 0.239 nM, respectively.
